According to patent US20240208944A1, “Quinazoline Derivatives, Pharmaceutical Compositions, and Therapeutic Uses Related to Nox Inhibition” (Emory University, priority 2021, published 2024):
Where a name gives a salt, the structure may show the parent alone. Read-outs that look alike come from different tables or passages of the source.

Legend:
NOX-2 = NOX-2 (Homo sapiens (Human), UniProt P04839); test: NOX-2 inhibition (Nox assays); format: biochemical
NOX-4 = NOX-4 (Homo sapiens (Human), UniProt Q9NPH5); test: NOX-4 inhibition (Nox assays); format: biochemical
Cytotoxicity CC50 = format: cell-based
[1] = Aqueous (water) solubility; format: physicochemical; conditions: for solubility: water
Protocol: (§1) The aqueous solubility, liver microsomal stability, and in vivo pharmacokinetics were determined. […] These derivatives have requisite stability in mouse liver microsomes.

[2] = Mouse liver microsomal stability; format: in vitro ADME; conditions: mouse liver microsomes; read-out: MLM T1/2
Protocol: as §1

[3] = In vivo pharmacokinetics in Sprague Dawley rats; set-up: species or system rat; conditions: for half-life: male SD rats
Source text: The compound has a brain-to-plasma ratio >10.
In Vivo Pharmacokinetics for Compound TG15-132S in Sprague Dawley (SD) Rats.

THP1 monocytic cells = test: PMA-induced mRNA levels of NOX2, its subunits and inflammatory markers in THP1 cells; format: cell-based; conditions: THP1 cells treated with PMA 100 ng/ml
Source text: These markers are suppressed by the treatment of NOX2 inhibitor TG15-132.HCI.

NOX-4, sequence (Q9NPH5 whole entry, species assumed): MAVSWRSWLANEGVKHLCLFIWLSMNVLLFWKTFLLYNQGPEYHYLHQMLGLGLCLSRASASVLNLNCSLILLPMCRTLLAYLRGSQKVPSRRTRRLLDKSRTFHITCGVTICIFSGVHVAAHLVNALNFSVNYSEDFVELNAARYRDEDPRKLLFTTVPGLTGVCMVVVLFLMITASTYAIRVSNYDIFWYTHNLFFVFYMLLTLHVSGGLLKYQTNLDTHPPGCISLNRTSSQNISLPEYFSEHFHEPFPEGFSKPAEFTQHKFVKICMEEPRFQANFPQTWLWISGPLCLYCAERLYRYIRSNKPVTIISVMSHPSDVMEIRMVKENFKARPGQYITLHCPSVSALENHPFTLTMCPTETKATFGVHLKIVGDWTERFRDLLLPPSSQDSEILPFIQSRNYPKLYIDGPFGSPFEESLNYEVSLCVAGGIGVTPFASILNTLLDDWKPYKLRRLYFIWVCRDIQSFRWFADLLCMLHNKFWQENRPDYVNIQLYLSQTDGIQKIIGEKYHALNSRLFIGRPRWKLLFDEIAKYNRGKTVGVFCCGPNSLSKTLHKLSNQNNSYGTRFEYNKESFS
NOX-4, sequence (P13498 whole entry partner, species assumed): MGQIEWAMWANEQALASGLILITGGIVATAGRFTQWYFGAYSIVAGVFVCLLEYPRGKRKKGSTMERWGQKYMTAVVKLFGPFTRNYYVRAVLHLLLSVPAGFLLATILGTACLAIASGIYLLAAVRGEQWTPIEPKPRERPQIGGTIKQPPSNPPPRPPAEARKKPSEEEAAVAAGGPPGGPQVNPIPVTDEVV
NOX-2, sequence (P04839 2-570, species assumed): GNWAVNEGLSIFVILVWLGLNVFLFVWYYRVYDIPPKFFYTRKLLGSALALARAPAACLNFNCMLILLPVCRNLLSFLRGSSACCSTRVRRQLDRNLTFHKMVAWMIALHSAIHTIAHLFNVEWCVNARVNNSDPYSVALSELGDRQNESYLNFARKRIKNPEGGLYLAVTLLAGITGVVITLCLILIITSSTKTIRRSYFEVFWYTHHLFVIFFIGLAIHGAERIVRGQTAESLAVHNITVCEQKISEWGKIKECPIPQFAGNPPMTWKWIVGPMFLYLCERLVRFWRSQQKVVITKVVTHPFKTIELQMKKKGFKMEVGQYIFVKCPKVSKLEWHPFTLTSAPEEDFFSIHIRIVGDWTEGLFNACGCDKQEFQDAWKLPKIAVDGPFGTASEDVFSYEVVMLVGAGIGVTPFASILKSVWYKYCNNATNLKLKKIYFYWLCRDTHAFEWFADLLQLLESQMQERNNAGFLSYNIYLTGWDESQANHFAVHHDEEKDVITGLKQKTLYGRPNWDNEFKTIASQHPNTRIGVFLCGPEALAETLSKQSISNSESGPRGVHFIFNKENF
NOX-2, sequence (P13498 whole entry partner, species assumed): as the sequence (P13498 whole entry partner, species assumed) above

For `O=C(CCCn1c(=S)[nH]c2ccccc2c1=O)N1CCN(c2ccccc2O)CC1` [Compd. 43, 3-(4-(4-(2-hydroxyphenyl)piperazin-1-yl)-4-oxobutyl)-2-thioxo-2,3-dihydroquinazolin-4(1H)-one], the IC50 (NOX-2) was 2.3 µM, the IC50 (NOX-4) was greater than 50 µM and the CC50 (Cytotoxicity CC50) was greater than 20 µM.

With `O=C(CCCn1c(=S)[nH]c2ccc(F)cc2c1=O)N1CCN(c2ccccc2O)CC1` [LY4-123S, 6-fluoro-3-(4-(4-(2-hydroxyphenyl)piperazin-1-yl)-4-oxobutyl)-2-thioxo-2,3-dihydroquinazolin-4(1H)-one] the IC50 (NOX-2) was 3.3 µM and the IC50 (NOX-4) was 8.3 µM.

Work on `CN(C)CCCn1c(SCc2ccccn2)nc2ccc(F)cc2c1=O` [LY5-10, 3-(3-(dimethylamino)propyl)-6-fluoro-2-((pyridin-2-ylmethyl)thio)quinazolin-4(3H)-one] yielded an IC50 (NOX-2) greater than 100 µM.

With `CN(C)CCCn1c(SCCCc2ccccn2)nc2ccc(F)cc2c1=O` [LY5-11, 3-(3-(dimethylamino)propyl)-6-fluoro-2-((3-(pyridin-2-yl)propyl)thio)quinazolin-4(3H)-one] the IC50 (NOX-2) was greater than 100 µM.

`CN(C)CCCn1c(SCCc2ccccn2)nc2ccc(Cl)cc2c1=O` [TG15-124-HCl, 6-chloro-3-(3-(dimethylamino)propyl)-2-((2-(pyridin-2-yl)ethyl)thio)quinazolin-4(3H)-one] showed an IC50 (NOX-2) greater than 100 µM and a CC50 (Cytotoxicity CC50) greater than 10 µM.

For `CN(C)CCCn1c(SCCc2ccccn2)nc2ccc(F)cc2c1=O` [TG15-131-HCl, 3-(3-(dimethylamino)propyl)-6-fluoro-2-((2-(pyridin-2-yl)ethyl)thio)quinazolin-4(3H)-one], the IC50 (NOX-2) was greater than 50 µM.

For `CN(C)CCCn1c(SCCc2c[nH]c3ccccc23)nc2ccc(F)cc2c1=O.Cl` [TG15-132S, 2-((2-(1H-indol-3-yl)ethyl)thio)-3-(3-(dimethylamino)propyl)-6-fluoroquinazolin-4(3H)-one, hydrochloride], the IC50 (NOX-2) was 3.3 µM, the “water solubility (in words)” value [1] was “excellent water solubility” and the solubility [1] was 1200 µM. For the same compound, the half-life [2] was 0.4 h, the clearance rate ([3]; SD rats, single 20 mg/kg IP) was 32.75 mL/min/kg and the half-life ([3]; Sprague-Dawley, rat, 20 mg/kg IP, brain, read-out: half-life in the brain) was greater than 5 h. For the same compound, the half-life ([3]; Sprague-Dawley, rat, 20 mg/kg IP, plasma, read-out: half-life in plasma) was greater than 5 h, the Kp ([3]; male, Sprague-Dawley, brain and plasma, rat, 20 mg/kg IP, read-out: In vivo B/P Ratio (brain-to-plasma ratio)) was greater than 10 and the “In vivo B/P Ratio (brain-to-plasma ratio)” value ([3]; rat, 20 mg/kg IP, hydrochloride) was greater than 10. The IC50 (NOX-4) was 26 µM, the CC50 (Cytotoxicity CC50) was greater than 20 µM and the “mRNA levels of NOX2 (gp91phox), p47phox, p67phox, IL-1beta and TNF” value (THP1 monocytic cells) was “suppressed”.

For `CN(C)CCCn1c(SCCc2c[nH]c3ccccc23)nc2ccc(Cl)cc2c1=O.Cl` [TG15-139S, 2-((2-(1H-indol-3-yl)ethyl)thio)-6-chloro-3-(3-(dimethylamino)propyl)quinazolin-4(3H)-one. Hydrochloride], the IC50 (NOX-2) was 1.65 µM, the “water solubility (in words)” value [1] was “excellent water solubility” and the solubility [1] was 2350 µM. It also gave a half-life [2] of 1.25 h, a Kp at 8 h ([3]; male, Sprague-Dawley, rat, brain and plasma, SD rats, single 20 mg/kg IP, up to 8 h, read-out: brain-to-plasma ratio up to 8 h) greater than 10 and a Kp ([3]; male, Sprague-Dawley, rat, brain and plasma, SD rats, single 20 mg/kg IP, read-out: brain-to-plasma ratio) greater than 23. The IC50 (NOX-4) was 32 µM and the CC50 (Cytotoxicity CC50) was greater than 10 µM.

For `CC(C)N1CCN(CCCn2c(SCCc3c[nH]c4ccccc34)nc3ccc(F)cc3c2=O)CC1` [TG17-57, 2-((2-(1H-indol-3-yl)ethyl)thio)-6-fluoro-3-(3-(4-isopropylpiperazin-1-yl)propyl)quinazolin-4(3H)-one], the IC50 (NOX-2) was 2.4 µM.
